Four compounds from PMC8631057 (Antiviral research, 2021) can be followed below.

pIC50: −log10 of the molar value. Where two headings read alike, the source gives them in different places.

The subject of data set [1] is rCedV-Luc. Briefly: microbe, parasite or virus in culture. Format: cell-based. The conditions noted are these: read-out: IC50 (95% CI).
The next data set can be described thus: in vitro. The conditions noted are these: human.
A further data set relates to CedV F and G. Format: cell-based.
A further data set deals with HeV. The data set is described as follows: microbe, parasite or virus in culture. Format: cell-based, Hendra virus. The conditions noted are these: for pIC50: read-out: IC50 (95% CI).
The next data set deals with NiV-B. The data set is described as follows: microbe, parasite or virus in culture. Format: cell-based, Nipah virus. The conditions noted are these: for pIC50: read-out: IC50 (95% CI).
Data set [2] deals with rCedV-Luc. The data set is described as follows: microbe, parasite or virus in culture. The conditions noted are these: Cedar virus, Vero C1008, 48 h, read-out: IC50 (95% CI). Format: cell-based.
The subject of the next data set is Vero 76 cell line. The conditions noted are these: African green monkey.

What is called pIC50 is the IC50 on a negative log10 scale, so that one unit is a factor of ten. As for `CCOc1ccc(C2c3[nH]c4ccccc4c3CCN2C(=O)C2CCC2)cc1` (stereo not drawn) [Compound C1, cyclobutyl(1-(4-ethoxyphenyl)-1,3,4,9-tetrahydro-2H-pyrido[3,4-b]indol-2-yl)methanone], the negative-log IC50 (pIC50) was 5.51 with rCedV-Luc [1] (Cedar virus, HEK-293T, 48 h); 5.01 in the data set on HeV (Henipavirus hendraense, Vero 76, 48 h); 5.74 in the data set on NiV-B (Henipavirus nipahense, Vero 76, 48 h); 5.11 with rCedV-Luc [2]. The CC50 in the data set “in vitro” was greater than 100 µM. Further, the “Inhibition of cell-cell membrane fusion activity” value with CedV F and G is on record as “did not inhibit cell-cell membrane fusion activity”. The “Selectivity index (SI)” value in the data set with HeV is listed as greater than 10; in the data set with NiV-B, greater than 55.

As for `COc1ccc(Nc2nc(-c3nnn(-c4ccc(Br)cc4F)c3C)ns2)cc1` [Z, 3-(1-(4-bromo-2-fluorophenyl)-5-methyl-1H-1,2,3-triazol-4-yl)-N-(4-methoxyphenyl)-1,2,4-thiadiazol-5-amine], the pIC50 in the data set with rCedV-Luc [1] (Cedar virus, HEK-293T, 48 h) is 6.89; with rCedV-Luc [2], 6.39. Also, the CC50 in the data set “in vitro” is greater than 100 µM.

In the case of “(1-(6-(cyclopropylamino)pyrimidin-4-yl)piperidin-4-yl)-N-(2-(thiophen-2-yl)ethyl)propenamide [Compound A3]”, the pIC50 in the data set on rCedV-Luc [1] was roughly 6.52. The CC50 in the data set with Vero E6 cells and in the data set with HEK 293T cells was greater than 100 µM each time.

For the compound “cyclobutyl(1-(4-ethoxyphenyl)-1,3,4,9-tetrahydro-2H-pyrido[3,4-b]indol-2-yl)methanone [Compound F1]”, the CC50 in the data set on Vero E6 cells (African green monkey) was greater than 100 µM; with HEK 293T cells (human), 85.8 µM; in the data set with Vero 76 cell line, greater than 100 µM. The “Inhibition of cell-cell membrane fusion activity” value in the data set on CedV F and G is listed as “did not inhibit cell-cell membrane fusion activity”. In addition, the negative logarithm of the IC50 (pIC50) was 4.71 in the data set on HeV and 5.38 in the data set with NiV-B. Also, in the data set with HEK 293T cells, the “Cytotoxicity (in words)” value is given as “mild toxicity”.
